Measured values reported in PMC7401714 (Japanese Journal of Clinical Oncology, 2020).

What was measured:
[1] = tested on: advanced solid tumors; experiment: Phase I; format: in vivo, human; details: for PFS, single patient: 500 mg once daily
[2] = Phase I; format: in vivo, human; details: for T lag / Tmax: median, [range]; for Tmax: human, in vivo, T max
[3] = tested on: patients with advanced solid tumors; details: first-in-man trial outside of Japan; cited from earlier work
[4] = tested on: Japanese patients with advanced solid tumors; experiment: Phase I dose escalation; details: for Patients with TEAE leading to death: primary reason for death was disease progression

CN1CCC(COc2cnc(-c3cccc(Cn4nc(-c5cccc(C#N)c5)ccc4=O)c3)nc2)CC1 [Tepotinib]
41.7%: patients with tepotinib-related TEAEs of any grade ([4]; all doses (n = 12))
0.99 [0.47–1.98] h: T lag ([2]; Day 1, 500 mg once daily (n = 6))
0 n (%): Patients with TEAE leading to treatment discontinuation ([4]; 215 mg once daily (n = 3)) | Patients with any grade ≥3 TEAE ([4]; 215 mg once daily (n = 3)) | Patients with any related grade ≥3 TEAE ([4]; 215 mg once daily (n = 3)) | Patients with any related serious TEAE ([4]; 215 mg once daily (n = 3)) | Patients with any serious TEAE ([4]; 215 mg once daily (n = 3)) | Patients with related TEAE leading to death ([4]; 215 mg once daily (n = 3)) | Patients with related TEAE of special interest (lipase or amylase elevation of grade ≥3) ([4]; 215 mg once daily (n = 3)) | Tepotinib-related TEAE, Grade 3/4: Hyponatremia (grade 3) ([4]; 215 mg once daily (n = 3)) | Tepotinib-related TEAE, Grade 3/4: Lipase increase (grade 4) ([4]; 215 mg once daily (n = 3)) | Tepotinib-related TEAE, any grade: Acneiform dermatitis ([4]; 215 mg once daily (n = 3)) | Tepotinib-related TEAE, any grade: Amylase increase ([4]; 215 mg once daily (n = 3)) | Tepotinib-related TEAE, any grade: Hypoalbuminemia ([4]; 215 mg once daily (n = 3)) | Tepotinib-related TEAE, any grade: Hyponatremia ([4]; 215 mg once daily (n = 3)) | Tepotinib-related TEAE, any grade: Lipase increase ([4]; 215 mg once daily (n = 3)) | Tepotinib-related TEAE, any grade: Nausea ([4]; 215 mg once daily (n = 3)) | Tepotinib-related TEAE, any grade: Serum creatinine increase ([4]; 215 mg once daily (n = 3)) | Tepotinib-related TEAE, any grade: Stomatitis ([4]; 215 mg once daily (n = 3)) | Tepotinib-related TEAE, any grade: Vomiting ([4]; 215 mg once daily (n = 3)) | Patients with TEAE leading to death ([4]; 215 mg once daily (n = 3)) | Patients with TEAE leading to treatment discontinuation ([4]; 300 mg once daily (n = 3)) | Patients with any related grade ≥3 TEAE ([4]; 300 mg once daily (n = 3)) | Patients with any related serious TEAE ([4]; 300 mg once daily (n = 3)) | Patients with related TEAE leading to death ([4]; 300 mg once daily (n = 3)) | Patients with related TEAE of special interest (lipase or amylase elevation of grade ≥3) ([4]; 300 mg once daily (n = 3)) | Tepotinib-related TEAE, Grade 3/4: Hyponatremia (grade 3) ([4]; 300 mg once daily (n = 3)) | Tepotinib-related TEAE, Grade 3/4: Lipase increase (grade 4) ([4]; 300 mg once daily (n = 3)) | Tepotinib-related TEAE, any grade: Acneiform dermatitis ([4]; 300 mg once daily (n = 3)) | Tepotinib-related TEAE, any grade: Amylase increase ([4]; 300 mg once daily (n = 3)) | Tepotinib-related TEAE, any grade: Decreased appetite ([4]; 300 mg once daily (n = 3)) | Tepotinib-related TEAE, any grade: Dysgeusia ([4]; 300 mg once daily (n = 3)) | Tepotinib-related TEAE, any grade: Hypoalbuminemia ([4]; 300 mg once daily (n = 3)) | Tepotinib-related TEAE, any grade: Hyponatremia ([4]; 300 mg once daily (n = 3)) | Tepotinib-related TEAE, any grade: Lipase increase ([4]; 300 mg once daily (n = 3)) | Tepotinib-related TEAE, any grade: Nausea ([4]; 300 mg once daily (n = 3)) | Tepotinib-related TEAE, any grade: Serum creatinine increase ([4]; 300 mg once daily (n = 3)) | Tepotinib-related TEAE, any grade: Stomatitis ([4]; 300 mg once daily (n = 3)) | Tepotinib-related TEAE, any grade: Vomiting ([4]; 300 mg once daily (n = 3)) | Patients with TEAE leading to death ([4]; 300 mg once daily (n = 3)) | Patients with TEAE leading to treatment discontinuation ([4]; 500 mg once daily (n = 6)) | Patients with any related serious TEAE ([4]; 500 mg once daily (n = 6)) | Patients with related TEAE leading to death ([4]; 500 mg once daily (n = 6)) | Tepotinib-related TEAE, any grade: Decreased appetite ([4]; 500 mg once daily (n = 6)) | Tepotinib-related TEAE, any grade: Fatigue ([4]; 500 mg once daily (n = 6)) | Patients with TEAE leading to treatment discontinuation ([4]; Total, all doses (n = 12)) | Patients with any related serious TEAE ([4]; Total, all doses (n = 12)) | Patients with related TEAE leading to death ([4]; Total, all doses (n = 12))
4.6 months: PFS, single patient ([1]; patient, MET-expressing (IHC 2+) gastric cancer, four prior lines of chemotherapy)
1.38 (90% CI: 1.15–1.38) months: median PFS ([1]; all patients (n = 12), 90% CI)
5 (41.7) n (%): Patients with any treatment-related TEAE ([4]; Total, all doses (n = 12))
1 n (%): Patients with any treatment-related TEAE ([4]; 215 mg once daily (n = 3)) | Tepotinib-related TEAE, any grade: Decreased appetite ([4]; 215 mg once daily (n = 3)) | Tepotinib-related TEAE, any grade: Dysgeusia ([4]; 215 mg once daily (n = 3)) | Tepotinib-related TEAE, any grade: Fatigue ([4]; 215 mg once daily (n = 3)) | Patients with any treatment-related TEAE ([4]; 300 mg once daily (n = 3)) | Tepotinib-related TEAE, any grade: Fatigue ([4]; 300 mg once daily (n = 3)) | Patients with any serious TEAE ([4]; 500 mg once daily (n = 6)) | Tepotinib-related TEAE, Grade 3/4: Hyponatremia (grade 3) ([4]; 500 mg once daily (n = 6)) | Tepotinib-related TEAE, any grade: Acneiform dermatitis ([4]; 500 mg once daily (n = 6)) | Tepotinib-related TEAE, any grade: Dysgeusia ([4]; 500 mg once daily (n = 6)) | Tepotinib-related TEAE, any grade: Hyponatremia ([4]; 500 mg once daily (n = 6)) | Tepotinib-related TEAE, any grade: Nausea ([4]; 500 mg once daily (n = 6)) | Tepotinib-related TEAE, any grade: Serum creatinine increase ([4]; 500 mg once daily (n = 6)) | Tepotinib-related TEAE, any grade: Stomatitis ([4]; 500 mg once daily (n = 6)) | Tepotinib-related TEAE, any grade: Vomiting ([4]; 500 mg once daily (n = 6)) | Patients with TEAE leading to death ([4]; 500 mg once daily (n = 6))
16.7%: patients with BOR of stable disease (SD) ≥12 weeks ([1]; of 12 patients, both treated with 500 mg once daily)
11 (91.7) n (%): Patients with any TEAE ([4]; Total, all doses (n = 12))
2 (16.7) n (%): Patients with related TEAE of special interest (lipase or amylase elevation of grade ≥3) ([4]; Total, all doses (n = 12)) | Tepotinib-related TEAE, Grade 3/4: Lipase increase (grade 4) ([4]; Total, all doses (n = 12)) | Tepotinib-related TEAE, any grade: Amylase increase ([4]; Total, all doses (n = 12)) | Tepotinib-related TEAE, any grade: Dysgeusia ([4]; Total, all doses (n = 12)) | Tepotinib-related TEAE, any grade: Fatigue ([4]; Total, all doses (n = 12)) | Tepotinib-related TEAE, any grade: Hypoalbuminemia ([4]; Total, all doses (n = 12)) | Tepotinib-related TEAE, any grade: Lipase increase ([4]; Total, all doses (n = 12))
10 h: Tmax ([2]; 500 mg, Day 1, 500 mg once daily (n = 6))
3 (25.0) n (%): Patients with any related grade ≥3 TEAE ([4]; Total, all doses (n = 12))
No clinically relevant abnormalities: vital signs and other safety observations ([4]; all doses)
1 (8.3) n (%): Tepotinib-related TEAE, Grade 3/4: Hyponatremia (grade 3) ([4]; Total, all doses (n = 12)) | Tepotinib-related TEAE, any grade: Acneiform dermatitis ([4]; Total, all doses (n = 12)) | Tepotinib-related TEAE, any grade: Decreased appetite ([4]; Total, all doses (n = 12)) | Tepotinib-related TEAE, any grade: Hyponatremia ([4]; Total, all doses (n = 12)) | Tepotinib-related TEAE, any grade: Nausea ([4]; Total, all doses (n = 12)) | Tepotinib-related TEAE, any grade: Serum creatinine increase ([4]; Total, all doses (n = 12)) | Tepotinib-related TEAE, any grade: Stomatitis ([4]; Total, all doses (n = 12)) | Tepotinib-related TEAE, any grade: Vomiting ([4]; Total, all doses (n = 12)) | Patients with TEAE leading to death ([4]; Total, all doses (n = 12))
0.97 [0.97–2.00] h: T lag ([2]; Day 1, 300 mg once daily (n = 3))
No DLTs: dose-limiting toxicities (DLTs) ([4]; 215, 300 and 500 mg once daily, cycle 1)
4 n (%): Patients with any grade ≥3 TEAE ([4]; 500 mg once daily (n = 6))
3 n (%): Patients with any TEAE ([4]; 300 mg once daily (n = 3)) | Patients with any grade ≥3 TEAE ([4]; 300 mg once daily (n = 3)) | Patients with any serious TEAE ([4]; 300 mg once daily (n = 3)) | Patients with any related grade ≥3 TEAE ([4]; 500 mg once daily (n = 6)) | Patients with any treatment-related TEAE ([4]; 500 mg once daily (n = 6))
remained stable: trough concentrations between cycles 1 and 4 ([2]; individual patients)
75%: patients with BOR of disease progression ([1]; nine of 12 patients overall)
less than dose proportional: dose proportionality of exposure (Cmax, AUC0–t) ([2]; after the first and multiple oral doses, 215–500 mg)
≤ 1400 mg once daily: dose up to which monotherapy was generally well tolerated [3]
12.9 months: PFS, single patient ([1]; patient with urachal cancer (MET status not evaluable))
could not be established: maximum tolerated dose (MTD) [3]
7 (58.3) n (%): Patients with any grade ≥3 TEAE ([4]; Total, all doses (n = 12))
4 (33.3) n (%): Patients with any serious TEAE ([4]; Total, all doses (n = 12))
4.1 h: Tmax ([2]; 500 mg, Day 14, 500 mg once daily (n = 5))
1.95 [1.95–1.97] h: T lag ([2]; Day 1, 215 mg once daily (n = 3))
6 n (%): Patients with any TEAE ([4]; 500 mg once daily (n = 6))
9.9 h: Tmax ([2]; 300 mg, Day 14, 300 mg once daily (n = 3))
2 n (%): Patients with any TEAE ([4]; 215 mg once daily (n = 3)) | Patients with related TEAE of special interest (lipase or amylase elevation of grade ≥3) ([4]; 500 mg once daily (n = 6)) | Tepotinib-related TEAE, Grade 3/4: Lipase increase (grade 4) ([4]; 500 mg once daily (n = 6)) | Tepotinib-related TEAE, any grade: Amylase increase ([4]; 500 mg once daily (n = 6)) | Tepotinib-related TEAE, any grade: Hypoalbuminemia ([4]; 500 mg once daily (n = 6)) | Tepotinib-related TEAE, any grade: Lipase increase ([4]; 500 mg once daily (n = 6))
> 700 ng/mL: Caverage at steady state, all patients ([2]; 500 mg once daily)
8 h: Tmax ([2]; 215 mg, Day 1, 215 mg once daily (n = 3)) | Tmax ([2]; 215 mg, Day 14, 215 mg once daily (n = 3)) | Tmax ([2]; 300 mg, Day 1, 300 mg once daily (n = 3))
